Entries after “also recorded” stand apart in the source; their conditions may differ. Values belong to the compound of their own block, whether it stands above or below them.
What was measured:
[1] = Comparative plasma pharmacokinetics of the stereoisomers of 1-MT; format: in vivo, mice; conditions: for time to peak plasma concentrations: after PO administration, 50 mg/kg
Method: Comparative pharmacokinetic studies were initiated to characterize the in vivo disposition of the stereoisomers of 1-MT when administered by different routes, to determine the oral bioavailability, and to define the plasma concentrations associated with effective dosing regimens. Studies were conducted in conventional mice after IV, PO and SC doses of 50 mg/kg, and IP doses of 25 mg/kg, 50 mg/kg, and 100 mg/kg. In addition, plasma concentrations of 1-MT were determined in nude mice with implanted timed-release pellets designed to release the DL isomer for 7 days, and the D isomer for 14 days.

B16F10 melanomas = test: Established B16F10 melanoma in mice, 1MT with radiation or cyclophosphamide; format: in vivo, mouse
Method: FIGS. 11A-11D. Administration of 1-MT enhances immune-mediated host anti-tumor effect when administered with radiation or cyclophosphamide. Mice were injected subcutaneously (SQ) with 4×10^4 B16F10 cells. […] Control mice received vehicle pellets without drug.
Not unexpected, given that the tumor had already been allowed to create tolerance in the host.

[2] = tested on: Lewis Lung carcinoma (LLC); conditions: administration of 1-MT; cited from earlier work
IDO [3] = test: Recall MLR of LN cells from recipients of TDLN DCs, 1MT added to the MLR; conditions: responders from recipients of TDLN DCs
Method: Inguinal LN cells from recipient mice were assayed for functional responsiveness using MLRs stimulated by irradiated C57BL/6 (H-2K^b-positive) splenocytes.

IDO [4] = target: IDO (Mus musculus, UniProt P28776); test: MLR with sorted tumor-draining LN cells (pDCs) as stimulators and BM3 responder T cells; conditions: 250 uM
IDO (Mus musculus, UniProt P28776), sequence (P28776 whole entry): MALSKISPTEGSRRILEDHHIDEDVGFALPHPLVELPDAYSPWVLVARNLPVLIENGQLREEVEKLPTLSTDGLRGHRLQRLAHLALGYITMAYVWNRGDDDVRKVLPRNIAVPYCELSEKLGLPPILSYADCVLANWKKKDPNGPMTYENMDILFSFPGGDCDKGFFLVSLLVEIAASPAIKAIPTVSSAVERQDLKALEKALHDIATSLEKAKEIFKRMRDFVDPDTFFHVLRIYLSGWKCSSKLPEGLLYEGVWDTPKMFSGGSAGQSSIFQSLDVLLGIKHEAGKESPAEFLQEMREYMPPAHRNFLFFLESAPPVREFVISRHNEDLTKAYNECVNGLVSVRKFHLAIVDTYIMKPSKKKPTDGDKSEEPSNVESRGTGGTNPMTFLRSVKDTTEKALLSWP
Method: T cell activation in MLR. BM3 responder T cells were prepared from spleen by nylon-wool enrichment. Stimulators (sorted DCs or unfractionated TDLN) were mixed with 1×10^5 BM3 responder cells in 200 ul IMDM at the ratios shown in each figure. After 3 days, proliferation was measured by 4-hour thymidine incorporation assay.
MLRs were thus “two-way” reactions. However, the small number of sorted DCs used as stimulators contributed negligible proliferation compared to the large population of TCR-transgenic responder cells. Since the relevant readout was dominant suppression, the two-way MLR design presented no problem in interpretation.
Pooled draining LN cells (4 nodes) were stained and fractionated by 4-color MoFlo cell sorting for the two populations shown in the schematic of FIG. 5B. All other cells were collected in a third fraction. Each fraction was then used as stimulators in MLRs, using 50,000 BM3 T cells as responders. The number of stimulators used in each MLR was adjusted to be the same as would have been present in 50,000 cells of the original LN preparation, based on the measured percentage of each sorted fraction. Thus, 500 cells of the sorted B220^+ CD11c^+ fraction were added per well, and 1500 cells of the CD25^+ CD4^+ fraction, while 48,000 cells of the “all other” fraction were used.

[5] = target: indoleamine 2,3-dioxygenase (IDO) (Homo sapiens, UniProt P14902); test: Allogeneic mixed-leukocyte reaction (MLR) with IDO-expressing human DCs, T cell proliferation by thymidine incorporation; conditions: 250 uM in culture medium
indoleamine 2,3-dioxygenase (IDO), sequence (P14902 whole entry, the tested form may be a part): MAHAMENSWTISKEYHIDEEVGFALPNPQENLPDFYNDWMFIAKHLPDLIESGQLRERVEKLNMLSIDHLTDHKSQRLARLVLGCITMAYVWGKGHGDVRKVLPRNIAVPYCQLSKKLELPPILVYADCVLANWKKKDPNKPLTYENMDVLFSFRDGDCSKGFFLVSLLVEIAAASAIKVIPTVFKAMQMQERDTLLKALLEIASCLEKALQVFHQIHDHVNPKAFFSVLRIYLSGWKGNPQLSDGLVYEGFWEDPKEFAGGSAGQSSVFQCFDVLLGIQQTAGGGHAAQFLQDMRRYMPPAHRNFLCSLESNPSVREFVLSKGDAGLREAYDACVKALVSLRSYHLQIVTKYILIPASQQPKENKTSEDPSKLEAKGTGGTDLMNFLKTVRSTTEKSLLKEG
Method: After five days, proliferation was measured by four hour thymidine incorporation assay. “V”-bottom culture wells (Nunc) were used in MLR assays to maximize cell-cell contact.
DCs were used as stimulators in allogeneic mixed-leukocyte reactions (MLRs), with allogeneic lymphocytes as responder cells.

[6] = Pilot tissue biodistribution of D and L isomers after DL racemic infusion; format: in vivo, Mice; conditions: DL racemic 10 mg/day, 72 hour infusion
Excerpt: The results noted with spleen are particularly relevant because it is a lymphoid organ, and thus likely to be similar to tumor-draining lymph nodes.

- time to peak plasma concentrations [1]: 2 h
Compound: Cn1cc(C[C@H](N)C(=O)O)c2ccccc21 [L 1-MT, reference compound]

Compound: Cn1cc(C[C@H](N)C(=O)O)c2ccccc21 (racemic) [1MT, 1-methyl-tryptophan]
- tumor growth, 1MT with total-body radiation (B16F10 melanomas; DL racemic 20 mg/day plus 500 cGy single dose): significantly reduce tumor growth
- tumor growth, 1MT with cyclophosphamide (B16F10 melanomas; DL racemic 20 mg/day plus cyclophosphamide 150 mg/kg x 1 dose): significantly reduce tumor growth
- effect of 1MT alone on established tumor (B16F10 melanomas; DL racemic form, 20 mg per mouse per day, SQ pellets, from day 7): no effect
- effect of 1MT over cyclophosphamide alone in RAG1-knockout hosts (B16F10 melanomas; immunodeficient (RAG1-knockout) hosts): no enhancing effect
- effect of 1MT alone, replicated radiation studies (B16F10 melanomas; replicate of FIG. 11A design): no effect
- tumor outgrowth [2]: significantly delayed
- effect of 1MT on suppression in recall MLRs (IDO [3]): no effect; also recorded: not restored

- effect of 10x L-tryptophan with pDCs from IDO-knockout hosts (IDO [4]; IDO-KO): no effect
- DC-mediated inhibition of T cell proliferation on addition of supra-physiologic tryptophan [5]: completely reversed
Compound: N[C@@H](Cc1c[nH]c2ccccc12)C(=O)O [L-tryptophan]
- suppression by pDCs with excess L-tryptophan (IDO [4]; 10x): abrogated; also recorded: abrogates suppression

- time to peak plasma concentrations [1]: 2 h
- apparent volume of distribution ([1]; relative to L isomer): relatively greater
- distribution into muscle, D and L isomers [6]: equivalent distribution
- distribution into spleen, D and L isomers [6]: equivalent distribution
- level in brain, D versus L isomer [6]: lower levels
- level in plasma, D versus L isomer [6]: lower levels
Compound: Cn1cc(C[C@@H](N)C(=O)O)c2ccccc21 [1-methyl-D-tryptophan]
- effect of combination with radiation versus radiation alone, replicated studies (B16F10 melanomas; replicate of FIG. 11A design): enhanced effect over radiation alone
- accumulation in liver, D versus L isomer ([6]; SQ pellets, initial results): at least equal, and possibly preferential, accumulation
